Data: ChEMBL document CHEMBL3046901, “3D-pharmacophore model based virtual screening to identify dual-binding site and selective acetylcholinesterase inhibitors” (Med Chem Res, 2011)

Target: Acetylcholinesterase (Homo sapiens, UniProt P22303)
Assay: Inhibition of acetylcholinesterase (unknown origin)

Acetylcholinesterase, sequence (P22303 whole entry): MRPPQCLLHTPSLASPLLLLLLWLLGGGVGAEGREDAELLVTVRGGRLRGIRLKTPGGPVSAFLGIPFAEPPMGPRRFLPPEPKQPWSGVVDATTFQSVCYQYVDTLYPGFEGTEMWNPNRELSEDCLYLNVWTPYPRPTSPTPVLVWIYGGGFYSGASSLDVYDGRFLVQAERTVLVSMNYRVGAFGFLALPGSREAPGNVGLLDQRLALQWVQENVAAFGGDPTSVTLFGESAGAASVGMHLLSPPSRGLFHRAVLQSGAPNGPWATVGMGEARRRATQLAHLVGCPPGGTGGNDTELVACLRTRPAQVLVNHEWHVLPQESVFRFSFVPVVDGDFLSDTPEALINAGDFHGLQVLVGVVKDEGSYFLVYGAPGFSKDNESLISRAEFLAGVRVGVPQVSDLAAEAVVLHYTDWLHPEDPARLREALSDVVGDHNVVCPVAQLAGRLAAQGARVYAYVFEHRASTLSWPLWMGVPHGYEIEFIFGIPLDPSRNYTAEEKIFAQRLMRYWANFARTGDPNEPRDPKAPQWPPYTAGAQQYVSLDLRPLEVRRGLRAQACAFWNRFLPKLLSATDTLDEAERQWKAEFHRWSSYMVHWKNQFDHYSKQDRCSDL

Structure (SMILES)	IC50 [nM]
CNCOc1cccc(CN(C)CCCCCCCOc2ccc3c(=O)c4ccccc4oc3c2)c1	0.32
CN(CCCCCOc1ccc2c(=O)c3ccccc3oc2c1)Cc1ccccc1	6250
CCN(CCCCCOc1ccc2c(=O)c3ccccc3oc2c1)Cc1cccc(OC(=O)NC)c1	0.82
